Values quoted from earlier work in PubChem BioAssay AID1259409 (Chemical Carcinogenesis Research Information System (CCRIS), 2018).
“And” between values parts separate entries of the source, which are not always exact repeats. Equal values may be shown once.

Test system: rodent chemically induced tumor inhibition, incidence and multiplicity
Test: CCRIS tumor inhibitor studies
Conditions: Carcinogen: N-NITROBIS(2-OXOPROPYL)AMINE, 60559-38-4, Route [Inhibitor]: ORAL, Species: HAMSTER, Promoter: NONE USED

CC1=C(/C=C/C(C)=C/C=C/C(C)=C/C(=O)Nc2ccccc2)C(C)(C)CCC1
tumour outcome (control, treated, inhibition, significance) (Dose [Inhibitor]: 0.5 OR 1.0 MMOL/KG DIET DAILY STARTING 1 WK AFTER CARCINOGEN TREATMENT AND CONTINUING THROUGH THE END OF THE STUDY (STUD, Strain/Sex: SYRIAN/FEMALE, Target Tissue: Type of Lesion: PANCREAS: DUCTULAR ADENOMA, Dose [Carcinogen]: 10 MG/KG BW ONCE): 5/23 (22%), 11/25 (44%), -100%, not significant | tumour outcome (control, treated, inhibition, significance) (Dose [Inhibitor]: 0.5 OR 1.0 MMOL/KG DIET DAILY STARTING 1 WK AFTER CARCINOGEN TREATMENT AND CONTINUING THROUGH THE END OF THE STUDY (STUD, Strain/Sex: SYRIAN/FEMALE, Target Tissue: Type of Lesion: PANCREAS: DUCTULAR ADENOMA, Dose [Carcinogen]: 40 MG/KG BW ONCE): 12/20 (60%), 18/26 (69%), -15%, not significant | tumour outcome (control, treated, inhibition, significance) (Dose [Inhibitor]: 0.5 OR 1.0 MMOL/KG DIET DAILY STARTING 1 WK AFTER CARCINOGEN TREATMENT AND CONTINUING THROUGH THE END OF THE STUDY (STUD, Strain/Sex: SYRIAN/FEMALE, Target Tissue: Type of Lesion: PANCREAS: DUCTULAR CARCINOMA, Dose [Carcinogen]: 10 MG/KG BW ONCE): 6/23 (27%), 2/25 (8%), 70%, not significant | tumour outcome (control, treated, inhibition, significance) (Dose [Inhibitor]: 0.5 OR 1.0 MMOL/KG DIET DAILY STARTING 1 WK AFTER CARCINOGEN TREATMENT AND CONTINUING THROUGH THE END OF THE STUDY (STUD, Strain/Sex: SYRIAN/MALE, Target Tissue: Type of Lesion: LIVER: BENIGN TUMOR, Dose [Carcinogen]: 40 MG/KG BW ONCE): 4/20 (20%), 12/26 (46%), -130%, not significant and 5/24 (21%), 17/39 (44%), -110%, p<0.05 | tumour outcome (control, treated, inhibition, significance) (Dose [Inhibitor]: 0.5 OR 1.0 MMOL/KG DIET DAILY STARTING 1 WK AFTER CARCINOGEN TREATMENT AND CONTINUING THROUGH THE END OF THE STUDY (STUD, Strain/Sex: SYRIAN/MALE, Target Tissue: Type of Lesion: PANCREAS: DUCTULAR ADENOMA, Dose [Carcinogen]: 10 MG/KG BW ONCE): 3/22 (14%), 14/31 (45%), -221%, p<0.05 | tumour outcome (control, treated, inhibition, significance) (Dose [Inhibitor]: 0.5 OR 1.0 MMOL/KG DIET DAILY STARTING 1 WK AFTER CARCINOGEN TREATMENT AND CONTINUING THROUGH THE END OF THE STUDY (STUD, Strain/Sex: SYRIAN/MALE, Target Tissue: Type of Lesion: PANCREAS: DUCTULAR ADENOMA, Dose [Carcinogen]: 40 MG/KG BW ONCE): 8/24 (33%), 19/37 (51%), -55%, not significant | tumour outcome (control, treated, inhibition, significance) (Dose [Inhibitor]: 0.5 OR 1.0 MMOL/KG DIET DAILY STARTING 1 WK AFTER CARCINOGEN TREATMENT AND CONTINUING THROUGH THE END OF THE STUDY (STUD, Strain/Sex: SYRIAN/MALE, Target Tissue: Type of Lesion: PANCREAS: DUCTULAR CARCINOMA, Dose [Carcinogen]: 10 MG/KG BW ONCE): 4/22 (18%), 3/31 (10%), 44%, not significant | tumour outcome (control, treated, inhibition, significance) (Dose [Inhibitor]: 0.5 OR 1.0 MMOL/KG DIET DAILY STARTING 1 WK AFTER CARCINOGEN TREATMENT AND CONTINUING THROUGH THE END OF THE STUDY (STUD, Strain/Sex: SYRIAN/MALE, Target Tissue: Type of Lesion: PANCREAS: DUCTULAR CARCINOMA, Dose [Carcinogen]: 40 MG/KG BW ONCE): 5/24 (21%), 15/37 (40%), -90%, not significant | tumour outcome (control, treated, inhibition, significance) (Dose [Inhibitor]: 0.5 OR 1 MMOL/KG DIET DAILY STARTING 1 WK AFTER CARCINOGEN TREATMENT AND CONTINUING THROUGH THE END OF THE STUDY (STUDY, Strain/Sex: SYRIAN/FEMALE, Target Tissue: Type of Lesion: PANCREAS: DUCTULAR CARCINOMA, Dose [Carcinogen]: 40 MG/KG BW ONCE): 6/20 (30%), 7/26 (27%), 10%, not significant | tumour outcome (control, treated, inhibition, significance) (Dose [Inhibitor]: 0.5 OR 1.0 MMOL/KG/D IN DIET STARTING 1 WK AFTER CARCINOGEN TREATMENT AND CONTINUING THROUGH THE END OF THE STUDY (STUDY, Strain/Sex: SYRIAN/FEMALE, Target Tissue: Type of Lesion: LIVER: BENIGN TUMOR, Dose [Carcinogen]: 40 MG/KG BW ONCE): 4/20 (20%), 12/26 (46%), -130%, not significant | tumour outcome (control, treated, inhibition, significance) (Dose [Inhibitor]: 0.5 OR 1.0 MMOL/KG/D IN DIET STARTING 1 WK AFTER CARCINOGEN TREATMENT AND CONTINUING THROUGH THE END OF THE STUDY (STUDY, Strain/Sex: SYRIAN/FEMALE, Target Tissue: Type of Lesion: PANCREAS: DUCTULAR ADENOMA, Dose [Carcinogen]: 10 MG/KG BW ONCE): 5/23 (22%), 11/25 (44%), -100%, not significant | tumour outcome (control, treated, inhibition, significance) (Dose [Inhibitor]: 0.5 OR 1.0 MMOL/KG/D IN DIET STARTING 1 WK AFTER CARCINOGEN TREATMENT AND CONTINUING THROUGH THE END OF THE STUDY (STUDY, Strain/Sex: SYRIAN/FEMALE, Target Tissue: Type of Lesion: PANCREAS: DUCTULAR ADENOMA, Dose [Carcinogen]: 40 MG/KG BW ONCE): 12/20 (60%), 18/26 (69%), -15%, not significant | tumour outcome (control, treated, inhibition, significance) (Dose [Inhibitor]: 0.5 OR 1.0 MMOL/KG/D IN DIET STARTING 1 WK AFTER CARCINOGEN TREATMENT AND CONTINUING THROUGH THE END OF THE STUDY (STUDY, Strain/Sex: SYRIAN/FEMALE, Target Tissue: Type of Lesion: PANCREAS: DUCTULAR CARCINOMA, Dose [Carcinogen]: 10 MG/KG BW ONCE): 6/23 (27%), 2/25 (8%), 70%, not significant | tumour outcome (control, treated, inhibition, significance) (Dose [Inhibitor]: 0.5 OR 1.0 MMOL/KG/D IN DIET STARTING 1 WK AFTER CARCINOGEN TREATMENT AND CONTINUING THROUGH THE END OF THE STUDY (STUDY, Strain/Sex: SYRIAN/FEMALE, Target Tissue: Type of Lesion: PANCREAS: DUCTULAR CARCINOMA, Dose [Carcinogen]: 40 MG/KG BW ONCE): 6/20 (30%), 7/26 (27%), 10%, not significant | tumour outcome (control, treated, inhibition, significance) (Dose [Inhibitor]: 0.5 OR 1.0 MMOL/KG/D IN DIET STARTING 1 WK AFTER CARCINOGEN TREATMENT AND CONTINUING THROUGH THE END OF THE STUDY (STUDY, Strain/Sex: SYRIAN/MALE, Target Tissue: Type of Lesion: LIVER: BENIGN TUMOR, Dose [Carcinogen]: 40 MG/KG BW ONCE): 5/24 (21%), 17/39 (44%), -110%, p<0.05 | tumour outcome (control, treated, inhibition, significance) (Dose [Inhibitor]: 0.5 OR 1.0 MMOL/KG/D IN DIET STARTING 1 WK AFTER CARCINOGEN TREATMENT AND CONTINUING THROUGH THE END OF THE STUDY (STUDY, Strain/Sex: SYRIAN/MALE, Target Tissue: Type of Lesion: PANCREAS: DUCTULAR ADENOMA, Dose [Carcinogen]: 10 MG/KG BW ONCE): 3/22 (14%), 14/31 (45%), -221%, p<0.05 | tumour outcome (control, treated, inhibition, significance) (Dose [Inhibitor]: 0.5 OR 1.0 MMOL/KG/D IN DIET STARTING 1 WK AFTER CARCINOGEN TREATMENT AND CONTINUING THROUGH THE END OF THE STUDY (STUDY, Strain/Sex: SYRIAN/MALE, Target Tissue: Type of Lesion: PANCREAS: DUCTULAR ADENOMA, Dose [Carcinogen]: 40 MG/KG BW ONCE): 8/24 (33%), 19/37 (51%), -55%, not significant | tumour outcome (control, treated, inhibition, significance) (Dose [Inhibitor]: 0.5 OR 1.0 MMOL/KG/D IN DIET STARTING 1 WK AFTER CARCINOGEN TREATMENT AND CONTINUING THROUGH THE END OF THE STUDY (STUDY, Strain/Sex: SYRIAN/MALE, Target Tissue: Type of Lesion: PANCREAS: DUCTULAR CARCINOMA, Dose [Carcinogen]: 10 MG/KG BW ONCE): 4/22 (18%), 3/31 (10%), 44%, not significant | tumour outcome (control, treated, inhibition, significance) (Dose [Inhibitor]: 0.5 OR 1.0 MMOL/KG/D IN DIET STARTING 1 WK AFTER CARCINOGEN TREATMENT AND CONTINUING THROUGH THE END OF THE STUDY (STUDY, Strain/Sex: SYRIAN/MALE, Target Tissue: Type of Lesion: PANCREAS: DUCTULAR CARCINOMA, Dose [Carcinogen]: 40 MG/KG BW ONCE): 5/24 (21%), 15/37 (40%), -90%, not significant
